Series [1] is filed under the species Homo sapiens. Nature of the series: Liver toxicity in human assessed as induction of drug-induced liver injury by measuring severity class index.
For series [2], the species on record is Homo sapiens. In words: Liver toxicity in human assessed as induction of drug-induced liver injury by measuring verified drug-induced liver injury concern status.
Throughout, for DILI severity class: key of the grades not given here.

Turning to `CN(C)CCOC(c1ccccc1)c1ccccc1.Cn1c(=O)c2[nH]c(Cl)nc2n(C)c1=O` [DIMENHYDRINATE], in the series filed under Homo sapiens [1], the DILI_severity_class stood at 0. The DILI_Concern entry in the series listed under Homo sapiens [2] was “No-Dili-Concern”.
For the compound `OCC(S)CS` (configuration not stated) [DIMERCAPROL], the DILI_severity_class in the series filed under Homo sapiens [1] is 0. Moreover, the DILI_Concern entry in the series listed under Homo sapiens [2] is on record as “No-Dili-Concern”.
For `CN(C)CCOC(c1ccccc1)c1ccccc1` [DIPHENHYDRAMINE], in that order: 0 and “No-Dili-Concern”.
For `CCOC(=O)C1(c2ccccc2)CCN(CCC(C#N)(c2ccccc2)c2ccccc2)CC1` [DIPHENOXYLATE], in that order: 0 and “No-Dili-Concern”.
The like results for `CC(C)N(CCC(C(N)=O)(c1ccccc1)c1ccccn1)C(C)C` (configuration not stated) [DISOPYRAMIDE] were, in that order, 2 and “Less-Dili-Concern”.
Regarding `CC(CCc1ccc(O)cc1)NCCc1ccc(O)c(O)c1` (configuration not stated) [DOBUTAMINE], the DILI_severity_class in the series filed under Homo sapiens [1] turned out to be 0. In the series filed under Homo sapiens [2], the DILI_Concern result is “No-Dili-Concern”.
For `CC(=O)O[C@@]12CO[C@@H]1C[C@H](O)[C@@]1(C)C(=O)[C@H](O)C3=C(C)[C@@H](OC(=O)[C@H](O)[C@@H](NC(=O)OC(C)(C)C)c4ccccc4)C[C@@](O)([C@@H](OC(=O)c4ccccc4)[C@H]21)C3(C)C` [DOCETAXEL ANHYDROUS], in that order: 3 and “Less-Dili-Concern”.
For `CN(CCOc1ccc(NS(C)(=O)=O)cc1)CCc1ccc(NS(C)(=O)=O)cc1` [DOFETILIDE], in that order: 0 and “No-Dili-Concern”.
With `O=C(O[C@@H]1C[C@@H]2C[C@H]3C[C@H](C1)N2CC3=O)c1c[nH]c2ccccc12` [DOLASETRON], in the series listed under Homo sapiens [1], the DILI_severity_class is listed as 3. For the same compound, the DILI_Concern entry in the series listed under Homo sapiens [2] was “Ambiguous-Dili-Concern”.
For `COc1cc2c(cc1OC)C(=O)C(CC1CCN(Cc3ccccc3)CC1)C2` (configuration not stated) [DONEPEZIL], in that order: 3 and “Less-Dili-Concern”.
Take `NCCc1ccc(O)c(O)c1` [DOPAMINE]: the DILI_severity_class in the series listed under Homo sapiens [1] was 0. In addition, in the series listed under Homo sapiens [2], the DILI_Concern result was “No-Dili-Concern”.
In the case of `C[C@@H](O)[C@H]1C(=O)N2C(C(=O)O)=C(S[C@@H]3CN[C@H](CNS(N)(=O)=O)C3)[C@H](C)[C@H]12` [DORIPENEM], in the series filed under Homo sapiens [1], the DILI_severity_class amounted to 3. Further, in the series filed under Homo sapiens [2], the DILI_Concern result is listed as “Ambiguous-Dili-Concern”.
The like results for `CCN1CC(CCN2CCOCC2)C(c2ccccc2)(c2ccccc2)C1=O` (configuration not stated) [DOXAPRAM] were, in that order, 0 and “No-Dili-Concern”.
The like results for `COc1cc2nc(N3CCN(C(=O)C4COc5ccccc5O4)CC3)nc(N)c2cc1OC` (configuration not stated) [DOXAZOSIN] were, in that order, 3 and “Ambiguous-Dili-Concern”.
With `CN(C)CCC=C1c2ccccc2COc2ccccc21` [DOXEPIN], the DILI_severity_class in the series listed under Homo sapiens [1] amounted to 4. The DILI_Concern entry in the series filed under Homo sapiens [2] is “Less-Dili-Concern”.
The like results for `C=C1/C(=C\C=C2/CCC[C@]3(C)[C@@H]([C@H](C)/C=C/[C@H](C)C(C)C)CC[C@@H]23)C[C@@H](O)C[C@@H]1O` [DOXERCALCIFEROL] were, in that order, 3 and “Ambiguous-Dili-Concern”.
Regarding `COc1cccc2c1C(=O)c1c(O)c3c(c(O)c1C2=O)C[C@@](O)(C(=O)CO)C[C@@H]3O[C@H]1C[C@H](N)[C@H](O)[C@H](C)O1` [DOXORUBICIN], in the series filed under Homo sapiens [1], the DILI_severity_class is recorded as 3. Moreover, the DILI_Concern result in the series listed under Homo sapiens [2] is reported as “Less-Dili-Concern”.
For `C[C@H]1c2cccc(O)c2C(=O)C2=C(O)[C@]3(O)C(=O)C(C(N)=O)=C(O)[C@@H](N(C)C)[C@@H]3[C@@H](O)[C@@H]21.O` [DOXYCYCLINE], in that order: 3 and “Less-Dili-Concern”.
The like results for `CN(C)CCOC(C)(c1ccccc1)c1ccccn1` (configuration not stated) [DOXYLAMINE] were, in that order, 0 and “No-Dili-Concern”.
Take `CCCCCc1cc(O)c2c(c1)OC(C)(C)[C@@H]1CCC(C)=C[C@@H]21` [DRONABINOL]: the DILI_severity_class in the series filed under Homo sapiens [1] turned out to be 3. Also, the DILI_Concern entry in the series filed under Homo sapiens [2] is “Ambiguous-Dili-Concern”.
As for `CCCCc1oc2ccc(NS(C)(=O)=O)cc2c1C(=O)c1ccc(OCCCN(CCCC)CCCC)cc1` [DRONEDARONE], the DILI_severity_class in the series listed under Homo sapiens [1] turned out to be 7. Further, the DILI_Concern result in the series listed under Homo sapiens [2] is “Most-Dili-Concern”.
The like results for `CN1c2c(oc(=O)n(-c3ccccn3)c2=O)-c2ccccc2S1(=O)=O` [DROXICAM] were, in that order, 8 and “Most-Dili-Concern”.
The like results for `CNCC[C@H](Oc1cccc2ccccc12)c1cccs1` [DULOXETINE] were, in that order, 8 and “Most-Dili-Concern”.
The like results for `C[C@]12C=CC(=O)N[C@@H]1CC[C@@H]1[C@@H]2CC[C@]2(C)[C@@H](C(=O)Nc3cc(C(F)(F)F)ccc3C(F)(F)F)CC[C@@H]12` [DUTASTERIDE] were, in that order, 0 and “No-Dili-Concern”.
Turning to `Cn1c(=O)c2c(ncn2CC(O)CO)n(C)c1=O` (configuration not stated) [DYPHYLLINE], in the series filed under Homo sapiens [1], the DILI_severity_class was 0. In addition, the DILI_Concern entry in the series filed under Homo sapiens [2] is “No-Dili-Concern”.
As to `NC(N)=Nc1nc(CSCCN/C=N/S(=O)(=O)c2ccc(Br)cc2)cs1` [EBROTIDINE], the DILI_severity_class in the series filed under Homo sapiens [1] came to 8. Besides, in the series listed under Homo sapiens [2], the DILI_Concern entry is on record as “Most-Dili-Concern”.
The like results for `O=C(O)CN(CCN(CC(=O)O)CC(=O)O)CC(=O)O` [EDETIC ACID] were, in that order, 3 and “Ambiguous-Dili-Concern”.
The like results for `CC[N+](C)(C)c1cccc(O)c1` [EDROPHONIUM] were, in that order, 0 and “No-Dili-Concern”.
The like results for `O=C1Nc2ccc(Cl)cc2[C@@](C#CC2CC2)(C(F)(F)F)O1` [EFAVIRENZ] were, in that order, 7 and “Most-Dili-Concern”.
On to `CC1=NN(c2ccc(C)c(C)c2)C(=O)/C1=N\Nc1cccc(-c2cccc(C(=O)O)c2)c1O.NCCO.NCCO` [ELTROMBOPAG OLAMINE], for which the DILI_severity_class in the series filed under Homo sapiens [1] is 4. In the series filed under Homo sapiens [2], the DILI_Concern entry is reported as “Most-Dili-Concern”.
For `Nc1nc(=O)n([C@@H]2CS[C@H](CO)O2)cc1F` [EMTRICITABINE], in that order: 2 and “Ambiguous-Dili-Concern”.
With `C[C@H](N[C@@H](CCc1ccccc1)C(=O)O)C(=O)N1CCC[C@H]1C(=O)O` [ENALAPRILAT ANHYDROUS], the DILI_severity_class in the series listed under Homo sapiens [1] is on record as 7. Further, in the series filed under Homo sapiens [2], the DILI_Concern result is “Ambiguous-Dili-Concern”.
As to `CCN(CC)C(=O)/C(C#N)=C/c1cc(O)c(O)c([N+](=O)[O-])c1` [ENTACAPONE], the DILI_severity_class in the series filed under Homo sapiens [1] stood at 0. Further, the DILI_Concern result in the series filed under Homo sapiens [2] was “Less-Dili-Concern”.
Consider `CN[C@@H](C)[C@H](O)c1ccccc1` [EPHEDRINE], for which the DILI_severity_class in the series filed under Homo sapiens [1] worked out at 0. Besides, the DILI_Concern result in the series filed under Homo sapiens [2] was “No-Dili-Concern”.
In the case of `CNC[C@H](O)c1ccc(O)c(O)c1` [EPINEPHRINE], the DILI_severity_class in the series filed under Homo sapiens [1] turned out to be 0. For the same compound, the DILI_Concern result in the series listed under Homo sapiens [2] is recorded as “No-Dili-Concern”.
The like results for `COc1cccc2c1C(=O)c1c(O)c3c(c(O)c1C2=O)C[C@@](O)(C(=O)CO)C[C@@H]3O[C@H]1C[C@H](N)[C@@H](O)[C@H](C)O1` [EPIRUBICIN] were, in that order, 3 and “Ambiguous-Dili-Concern”.

These data come from ChEMBL document CHEMBL4028802, “DILIrank: the largest reference drug list ranked by the risk for developing drug-induced liver injury in humans” (Drug Discov Today, 2016).
